Results reported in patent US20120003191A1, “VALPROIC ACID, DERIVATIVES, ANALOGUES, AND COMPOSITIONS INCLUDING SAME AND METHODS FOR THEIR THERAPEUTIC USE” (priority 2009, published 2012).

Assays:
p70S6K = test: Western blotting of activated p70S6K in α7+/− myotubes; format: cell-based, mouse; conditions: VPA for 48 or 72 hours
Description: α7^+/− myogenic cells were cultured on 1% gelatin-coated plastic plates in Ham's F-10 growth medium (20% FBS, 0.5% chick embryo extract, 5 ng/ml bFGF, 2 mM glutamine, 100 U/ml penicillin and 100 μg/ml streptomycin). After six passages, cells were grown in DMEM containing 20% FBS, 0.5% chick embryo extract, 2 mM glutamine, 100 U/ml penicillin and 100 μg/ml streptomycin. Differentiation was induced by switching the medium to DMEM containing 2% horse serum and antibiotics when cells attained 90% confluence. After 48 hours of differentiation, 2 mM VPA was added and supplied fresh every 24 hours. Wortmannin was used at 100 nM and added fresh every 24 hours.
(§1) Cell lysates of differentiating cells on 60 mm dishes were prepared as follows: the cells were washed twice with PBS and 200 μl Triton X-100 lysis buffer (2% Triton X-100, 20 mM Tris-Cl, pH 7.4, 150 mM NaCl, 1 mM EDTA, 1 mM EGTA, 2.5 mM NaPPi, 1 mM β-glycerophosphate, 1 mM sodium vanadate, 1:200 Protease Inhibitor Cocktail (EMD Chemicals, San Diego, Calif.) and 1 mM PMSF) were added. […] Protein concentrations were determined by the Bradford assay. […] The supernatants were collected and protein concentrations were determined spectrophotometrically at OD260 and OD280. […] ImageQuant analysis software (Molecular Dynamics, Sunnyvale, Calif.) was used to quantify band intensity.

mdx/utrn−/− mice = test: Masson's trichrome staining of quadriceps cryosections; format: in vivo, mouse; conditions: 240 mg/kg i.p. twice daily for 5 weeks
Description: (§2) mdx/utrn−/− mice lack both dystrophin and utrophin, and were bred and genotyped as reported in Burkin, et al., Enhanced expression of the alpha 7 beta 1 integrin reduces muscular dystrophy and restores viability in dystrophic mice, J. Cell Biol. 152:1207-18 (2001). 240 mg/kg body weight of VPA was injected intraperitoneally twice daily into mdx/utrn^−/− mice (n=9) starting at 3 weeks of age, for a period of 5 weeks. Control mice were injected with saline (n=9). Body-weights were determined daily. Masson's trichrome staining kit (American MasterTech Scientific Inc., Lodi, Calif.) was used to stain 8 μm muscle cryosections, as per the manufacturer's instructions.

type VI collagen = test: Western blotting of type VI collagen in quadriceps; format: in vivo, mouse; conditions: 240 mg/kg i.p. twice daily for 5 weeks
Description: as §2, with “daily.” for “daily. Masson's trichrome staining kit (American MasterTech Scientific Inc., Lodi, Calif.) was used to stain 8 μm muscle cryosections, as per the manufacturer's instructions.”
as §1, with “added. The cells were scraped and transferred into Eppendorf tubes, the cell suspensions were triturated and centrifuged at 8000×g at 4° C. for 10 minutes, and the supernatants were collected.” for “added.”

Akt = test: Western blotting of activated and total Akt in quadriceps of mdx/utrn−/− mice; format: in vivo, mouse; conditions: 240 mg/kg i.p. twice daily for 5 weeks
Description: as §2, with “daily.” for “daily. Masson's trichrome staining kit (American MasterTech Scientific Inc., Lodi, Calif.) was used to stain 8 μm muscle cryosections, as per the manufacturer's instructions.”
as §1, with “added. The cells were scraped and transferred into Eppendorf tubes, the cell suspensions were triturated and centrifuged at 8000×g at 4° C. for 10 minutes, and the supernatants were collected.” for “added.”

α7 integrin = test: Western blotting of α7 integrin in muscle extracts of mdx/utrn−/− mice; format: in vivo, mouse; conditions: 240 mg/kg i.p. twice daily for 5 weeks
Description: as §2, with “daily.” for “daily. Masson's trichrome staining kit (American MasterTech Scientific Inc., Lodi, Calif.) was used to stain 8 μm muscle cryosections, as per the manufacturer's instructions.”
as §1, with “added. The cells were scraped and transferred into Eppendorf tubes, the cell suspensions were triturated and centrifuged at 8000×g at 4° C. for 10 minutes, and the supernatants were collected.” for “added.”

## CCCC(CCC)C(=O)O [VPA, valproic acid]
p70S6K
  levels of activated p70S6K: higher levels
mdx/utrn−/− mice
  collagen staining in quadriceps compared to controls: lower intensity of collagen staining
Type VI collagen
  less type VI collagen in muscle than control mice: approximately 3 fold
Akt
  levels of activated Akt in muscle: Significantly higher levels
α7 integrin
  α7 integrin in muscle extracts, saline versus VPA injected mice: did not show changes
